Measured values taken from the supplement of paper PMC4862054.
“And” between values parts separate entries of the source, which are not always exact repeats. Equal values may be shown once.

Tests used:
Conditions in all cases: incubation time: 72 h
DU-4475 [1] = assay: normalised viability (% of control), CellTiter-Blue; higher = more viable cells (about 100 = DMSO control)
Description: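 DSRT, CellTiter-Blue viability, 72 h incubation. Signal is normalised to DMSO and benzethonium chloride controls. Value is the normalised response at dose 9.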

BT-474 [2] = assay: normalised response (% of control), CellTiter-Glo; higher = more viable cells (100 = DMSO, 0 = benzethonium chloride kill control)
Summary of the method: (§1)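 After 72 h with compound in 384-well plates, breast cancer cell lines seeded as 20 µl suspension were read for CellTox Green fluorescence at 485/520 nm. CellTiter-Glo luminescence was then read after 10 min at room temperature. Compound was present at 5 concentrations in 10-fold steps over a 10,000-fold range set per compound, and plates were normalised to 0.1 % DMSO (100) and a positive kill control (0). Values are normalised signals, each at a single concentration.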

BT-549 [3] = assay: as above
Summary of the method: as §1

CAL-120 [4] = assay: as above
Summary of the method: as §1

CAL-85-1 [5] = assay: as above
Summary of the method: as §1

HCC1143 [6] = assay: as above
Summary of the method: as §1

HCC1937 [7] = assay: as above
Summary of the method: as §1

Hs578T [8] = assay: as above
Summary of the method: as §1

SK-BR-3 [9] = assay: as above
Summary of the method: as §1

BT-474 [10] = assay: as above; remark: listed apart in the source
Summary of the method: as §1

BT-549 [11] = assay: as above; remark: listed apart in the source
Summary of the method: as §1

CAL-120 [12] = assay: as above; remark: listed apart in the source
Summary of the method: as §1

CAL-148 = assay: as above
Summary of the method: as §1

CAL-51 = assay: as above
Summary of the method: as §1

CAL-85-1 [13] = assay: as above; remark: listed apart in the source
Summary of the method: as §1

DU-4475 [14] = assay: as above
Summary of the method: as §1

HCC1143 [15] = assay: as above; remark: listed apart in the source
Summary of the method: as §1

HCC1599 = assay: as above
Summary of the method: as §1

HCC1937 [16] = assay: as above; remark: listed apart in the source
Summary of the method: as §1

HDQ-P1 = assay: as above
Summary of the method: as §1

Hs578T [17] = assay: as above; remark: listed apart in the source
Summary of the method: as §1

MCF-10A = assay: as above
Summary of the method: as §1

MDA-MB-231 = assay: as above
Summary of the method: as §1

MDA-MB-436 = assay: as above
Summary of the method: as §1

MDA-MB-453 = assay: as above
Summary of the method: as §1

MDA-MB-468 = assay: as above
Summary of the method: as §1

MFM-223 = assay: as above
Summary of the method: as §1

SK-BR-3 [18] = assay: as above; remark: listed apart in the source
Summary of the method: as §1

SMILES | normalised viability (DU-4475 [1]) | normalised response (BT-474 [2]) [%] | normalised response (BT-549 [3]) [%] | normalised response (CAL-120 [4]) [%] | normalised response (CAL-85-1 [5]) [%] | normalised response (HCC1143 [6]) [%] | normalised response (HCC1937 [7]) [%] | normalised response (Hs578T [8]) [%] | normalised response (SK-BR-3 [9]) [%] | also measured
COc1ccc(-c2cc3c(C)nc(N)nc3n([C@H]3CC[C@H](OCCO)CC3)c2=O)cn1 (10000 nM) | 0.68% | 23.9 | 8.65 | 26.1 | 4.45 | 7.29 | 8.02 | 5.22 | 18.6 | 
COc1cc(CCc2cc(NC(=O)c3ccc(N4CC(C)NC(C)C4)cc3)n[nH]2)cc(OC)c1 (stereo not given) [AZD4547] (1000 nM) | 0.72% | 99.6 | 88.7 | 68.2 | 105 | 96.5 | 95.8 | 87.6 | 89.6 | 
CCC/C=C/C=C/C(=O)O[C@H]1/C(=C/C(=O)OC)C[C@H]2C[C@H]([C@@H](C)O)OC(=O)C[C@H](O)C[C@@H]3C[C@H](OC(C)=O)C(C)(C)[C@](O)(C[C@@H]4C/C(=C/C(=O)OC)C[C@H](/C=C/C(C)(C)[C@]1(O)O2)O4)O3 [Bryostatin 1] (100 nM) | 77.3% | 81.2 | 87.9 | 104 | 98.5 | 94.1 | 98.6 | 88.6 | 73.6 | 
CO[C@@H](C(=O)N1Cc2[nH]nc(NC(=O)c3ccc(N4CCN(C)CC4)cc3)c2C1)c1ccccc1 [Danusertib] (10000 nM) | 13.9% | 55.5 | 14.7 | 22.1 | 67.8 | 47.1 | 85.3 | 46.1 | 85.6 | 
Cc1nc(Nc2ncc(C(=O)Nc3c(C)cccc3Cl)s2)cc(N2CCN(CCO)CC2)n1 [Dasatinib] (1000 nM) | 100% and 110% | 45.7 | 55.3 | 48.6 | 35.8 | 60.3 | 55.2 | 31.9 | 97.1 | 
Cc1c(CN2CCN(C(=O)[C@H](C)O)CC2)sc2c(N3CCOCC3)nc(-c3cnc(N)nc3)nc12 [GDC-0980] (10000 nM) | 9.81% | 47.6 | 19 | 23.2 | 18.2 | 20.7 | 29.5 | 20.3 | 19.2 | 
Nc1cccc2c1CN(C1CCC(=O)NC1=O)C2=O (stereo not given) [Lenalidomide] (10000 nM) | 95% and 80.6% | 94 | 98 | 93.6 | 103 | 95.3 | 102 | 98.1 | 98.5 | 
C[C@]12O[C@H](C[C@]1(O)CO)n1c3ccccc3c3c4c(c5c6ccccc6n2c5c31)CNC4=O [Lestaurtinib] (1000 nM) | 2.87% | 56.8 | 30.3 | 49.5 | 32.5 | 71.9 | 56 | 61.4 | 29.1 | 
O=C1c2c(O)ccc(O)c2C(=O)c2c(NCCNCCO)ccc(NCCNCCO)c21 [Mitoxantrone] (1000 nM) | 0.48% | 79.3 | 73.6 | 91.2 | 73.9 | 73.9 | 87.4 | 89.4 | 56.2 | 
Nc1ccccc1NC(=O)c1ccc(CNc2nccc(-c3cccnc3)n2)cc1 [Mocetinostat] (10000 nM) | 2.37% | 16.9 | 27.1 | 32 | 6.94 | 24.9 | 49.8 | 29 | 1.68 | 
COc1nc(N)nc2c1ncn2[C@@H]1O[C@H](CO)[C@@H](O)[C@@H]1O [Nelarabine] (10000 nM) | 109% and 104% | 87 | 95.8 | 98.6 | 103 | 94.9 | 91.7 | 90.5 | 76.6 | 
Cc1ccc(Nc2nccc(N(C)c3ccc4c(C)n(C)nc4c3)n2)cc1S(N)(=O)=O [Pazopanib] (10000 nM) | 86.8% | 91.4 | 48.1 | 89.4 | 103 | 97.2 | 102 | 88.5 | 105 | 
O=C(CCBr)N1CCN(C(=O)CCBr)CC1 [Pipobroman] (10000 nM) | 112% | 94.7 | 101 | 95.8 | 98.2 | 103 | 98.2 | 103 | 108 | 
C[C@]12C=CC(=O)C=C1CC[C@@H]1[C@@H]2[C@@H](O)C[C@@]2(C)[C@H]1CC[C@]2(O)C(=O)CO [Prednisolone] (10000 nM) | 102% | 144 | 99 | 76.9 | 118 | 112 | 101 | 109 | 96.7 | 
CCN(CC)CCNC(=O)c1c(C)[nH]c(/C=C2\C(=O)Nc3ccc(F)cc32)c1C [Sunitinib] (1000 nM) | 88.2% and 77.7% | 98.9 | 108 | 82.6 | 107 | 103 | 91.7 | 97.5 | 105 | 
CC[C@@]1(O)C(=O)OCc2c1cc1n(c2=O)Cc2cc3c(CN(C)C)c(O)ccc3nc2-1 [Topotecan] (1000 nM) | 12.4% |  |  |  |  |  |  |  |  | normalised response (BT-474 [10]): 81.8%; normalised response (BT-549 [11]): 51.5%; normalised response (CAL-120 [12]): 75.6%; normalised response (CAL-148): 24.3%; normalised response (CAL-51): 48%; normalised response (CAL-85-1 [13]): 50.1%; normalised response (DU-4475 [14]): 38.4%; normalised response (HCC1143 [15]): 55.1%; normalised response (HCC1599): 24.1%; normalised response (HCC1937 [16]): 79.3%; normalised response (HDQ-P1): 86.9%; normalised response (Hs578T [17]): 99.1%; normalised response (MCF-10A): 79.2%; normalised response (MDA-MB-231): 81.6%; normalised response (MDA-MB-436): 42.6%; normalised response (MDA-MB-453): 87.6%; normalised response (MDA-MB-468): 11.1%; normalised response (MFM-223): 91.4%; normalised response (SK-BR-3 [18]): 47.6%
